# Reference: patent US4304853A, “Method of determination for proteases and antiproteases” (priority 1979, dated 1981)
# Where a name gives a salt, the structure may show the parent alone. Read-outs that look alike come from different tables or passages of the source.
# How the values were obtained:
# trypsin = assay: Amperometric determination of substrate hydrolysis by trypsin (oxidation current of liberated pADA); type: biochemical
# Procedure: (§1) (a) A potentiostat, which is intended to maintain a constant potential difference between the measurement electrode and the reference electrode. A saw-tooth function generator, which generates a potential which varies between -0.1 and +0.4 V at a rate of 0.2 V/second. A graphic recorder with a good dynamic performance. A polytetrafluoroethylene cell which has a capacity of 5 ml and can hold three electrodes.
# (b) Measurement electrode: This consists of a platinum plate which is surrounded by a cylinder of polytetrafluoroethylene (surface area 0.0314 cm^2).
# (§2) (e) Solutions: The stock solutions of the enzyme (solution E) and of the substrate (solution S) are freshly prepared. The test solution, to which a given amount of E is added at the time t=0 of the kinetics, is termed A. The buffer, which has a pH of 8.15, is made up of 0.025 M Veronal^(R) and NaCl with an ionic strength of F=0.15.
# (§3) (f) Example of an electrode made of carbon paste: 15 g of pure carbon powder are mixed with 9 ml of paraffin oil, for example that sold commercially under the trade name Nujol^(R). An electrode with a surface area of 0.16 cm^2 and a thickness of 3 mm can be shaped from the homogeneously mixed paste.
# (§4) The measurement electrode is preconditioned in solution A without the enzyme, in order to impart to it a reproducible and precisely defined surface state before each cycle.
# (§5) The preconditioning is achieved by applying a potential which has a saw-tooth profile and changes as a function of time, the potential varying between -0.1 and +b 0.4 V and changing at a rate of 0.2 V/second.
# (§6) The electrode can then be used for the kinetic determinations, for which purpose the same saw-tooth potential as for the conditioning is applied every 60 seconds.
# After deducting the base current at the particular potential, the current levels recorded at the maximum value of any one wave i=f(U) are proportional to the concentration of the electroactive species liberated during the hydrolysis. […]
# The enzyme solution is added at the end of the potentiodynamic cycle which serves to record the base current (the base current has been shifted downwards; it is represented by the broken line). The concentrations corresponding to the current maxima can be read off from the calibration curve (FIG. 3). The conversion is determined as a function of time (maximum 30 minutes). […]
# The reciprocal value of the rate (1/V) has been plotted as the ordinate and the reciprocal value of the concentration of the substrate (1/S) has been plotted as the abscissa. The reciprocal value of the rate 1/V was expressed as follows: either as (μA/minute--10 μg of enzyme)^-1 or as (μ mol×10^3 of pADA/minute--10 μg of enzyme). The points o represent an average value of 10 measured values for the rate and the points X represent a graphical average value. […]
# thrombin = assay: Amperometric determination of substrate hydrolysis by thrombin (oxidation current of liberated amine); type: biochemical
# Procedure: as §1, §2, §3, §4, §5, §6
# After deducting the base current at the particular potential, the current levels recorded at the maximum value of any one wave i=f(U) are proportional to the concentration of the electroactive species liberated during the hydrolysis. In the case of short hydrolysis times, a plot of the current levels against time is linear. The relationship between the enzyme concentration E (in μg/ml) and the rate of hydrolysis at time 0 (represented by the ratio (di/dt)o in μA/minute, that is to say by the gradient of the curve i=f (t) at the origin) for an electrode with a surface area of 1 cm^2 is given by the following formula: […]
# The procedure is similar to that for trypsin and is also suitable for the determination of further enzymes, also with the aid of other substrates.
# These constants (summarized in Table II below) have been obtained with the aid of the electrode prepared in accordance with Example I f).
# [1] = carbon paste electrode, buffer a: Tris (0.025 M), NaCl (0.12 M), glycine (0.05 M), DMSO 4.76%, 20° C., pH 8.3
# [2] = carbon paste electrode, buffer a: Tris (0.025 M), NaCl (0.12 M), glycine (0.05 M), DMSO 4.76%, 20° C., pH 8.3, read-out: KM: Michaelis constant
"Km (trypsin; carbon paste electrode, buffer b: Veronal (0.025 M), NaCl (0.12 M), DMSO 6.35%, 30° C., pH 8.4, read-out: KM: Michaelis constant)","Km (trypsin; hydrolysis with trypsin 10 μg/ml, 30° C., pH 8.15 (TRIS), DMSO 6.35%, LINEWEAVER-BURK diagram FIG. 7, read-out: MICHAELIS-MENTEN constant Km)",Km (thrombin; [2]),"Km (thrombin; hydrolysis with thrombin, procedure similar to that for trypsin, Veronal buffer, read-out: Km)",SMILES,"VM: maximum rate (trypsin; carbon paste electrode, buffer b: Veronal (0.025 M), NaCl (0.12 M), DMSO 6.35%, 30° C., pH 8.4)","Standardization: current after hydrolysis for one minute (trypsin; hydrolysis of the substrate with 1 mM of trypsin for one minute, per cm^2 of electrode surface area, Veronal buffer pH 8.15)","Standardization: current after hydrolysis for one minute (thrombin; 0.1 mM of substrate with 0.01 I.U. of thrombin for one minute, Veronal buffer)",VM: maximum rate (thrombin; [1]),"Vm (thrombin; hydrolysis with thrombin, procedure similar to that for trypsin, Veronal buffer)"
800 µM,800 µM,–,–,"N=C(N)NCCCC(NC(=O)c1ccccc1)C(=O)Nc1ccc(Nc2ccccc2)cc1 (racemic) [D,L-BAPADA, benzoyl-D,L-arginine-p-aminodiphenyl-amide, HCl]",0.00096 μmole/minute I.U.,0.295 μA/cm^2,–,–,–
–,–,10 µM,10 µM,"N=C(N)NCCC[C@H](NC(=O)[C@@H]1CCCCN1C(=O)[C@H](N)Cc1ccccc1)C(=O)Nc1ccc(Nc2ccccc2)cc1 [HDL, H-D-phenylalanyl-L-pipecolyl-L-arginyl-p-amino-diphenylamide dihydrochloride]",–,–,0.217 μA/cm^2,0.10 μmole/minute I.U.,1.1×10^-7 moles/minute×I.U.
–,–,37 µM,–,COc1cc(NC(=O)[C@H](CCCNC(=N)N)NC(=O)[C@@H]2CCCCN2C(=O)[C@H](N)Cc2ccccc2)cc2ccccc12 [H--D--Phe--Pip--Arg--4--MBNA],–,–,–,0.020 μmole/minute I.U.,–
